Reference: patent US20240238278A1, “Pharmaceutical Composition for Preventing or Treating Fibrosis” (Daewoong Pharmaceutical Co., Ltd., priority 2021, published 2024)

Legend:
[1] = Human pharmacokinetics, single administration; type: in vivo; details: for CL/F / Cmax / MRT / T1/2 / tmax (median) / AUC(0-inf) / AUC(0-t) / Tmax: healthy adults, empty stomach; for Tmax: read-out: tmax (median)
Experimental: (§1) The formulation used in the clinical trial was prepared in the same manner as in Preparation Examples 1 and 2.

[2] = Human pharmacokinetics, multiple administration (Day 14); type: in vivo; details: for Accumulation ratio based on AUCτ / CL/Fss / Cmax, ss / MRT / T1/2 / Vz/Fss / tmax, ss (median) / AUCτ / AUC(0-inf): healthy adults; for Accumulation ratio based on AUCτ / CL/Fss / Cmax, ss / MRT / T1/2 / Vz/Fss / tmax, ss (median) / AUC(0-inf): Day 14; for AUCτ: Day 14, 12 hour dosing interval
Experimental: as §1

[3] = Pharmacokinetic model prediction of exposure in humans at various oral doses; parameters: species or system human; details: model-predicted
Text: Therefore, the optimal pharmacokinetic model parameters that can explain the changes in concentrations at all doses observed using Excel® and WinNonlin8.1 software were estimated for the blood drug concentration obtained in the human multidose clinical trial.

[4] = Safety/tolerance in healthy adults clinical trial; type: in vivo, human; details: 72 healthy adults, single (100-600 mg) and multiple (25-200 mg twice a day, 14 days) administration
Experimental: as §1

[5] = system: DHLF cell line; test: Non-clinical anti-fibrotic efficacy: Western blotting of TGF-β treated DHLF cell line; type: cell-based; details: TGF-β 10 ng/ml, 72 hours
Experimental: 10 mM of the first component was diluted with DMSO so as to be to 100 uM. It was diluted with DMSO so as to be 10, 3, 1 uM, and 10 mM of the second component (NIN) was diluted with DMSO to be 50 nM.
A DHLF cell line (FGM™-2 Bullet Kit™, 10% FBS), which is a lung fibrosis cell line, was prepared, and cultured in a T75 Easy Flask Filter at 37° C. and 5% CO2 using FBM medium. The cultured DHLF cell line was treated with 10 ng/mL of TGF-β and the test drug alone or in combination, cultured for 72 hours, then the media was removed, the protein was extracted, and the extracted protein was quantified using the BCA Protein Assay Kit. Based on the quantitative value of each extracted protein, 10 to 20 ug of protein was subjected to Western blotting. The protein after running was transferred to the PVDF membrane. After TBS-T washing 3 times, each PVDF membrane was treated with 1 mL of ECL solution, and then the protein expression level was measured using an AI680 imager. Each band value was calculated as a numerical value normalized compared to β-actin through ImageJ, and is shown in Tables 2 and 3 and FIGS. 1 and 2 below.

[6] = system: animal model of pulmonary fibrosis; test: Lung function evaluation (SpO2) in BLM animal model; type: in vivo, mouse; details: BLM mice, PO, day 21, first component 10 mg/kg, NIN 60 mg/kg, PID 200 mg/kg
Experimental: (§2) 70-100 uL of BLM solution (bleomycin 1-3 mg/kg) was administered to a lung of the acclimatized experimental animals using a catheter for 5 days or more. In accordance with the purpose of the test, the test drug was administered 7 days after BLM administration, and the drug was orally administered for 2 weeks until the 21st day of BLM administration.
This lung function evaluation is the most direct and important evaluation index that has the greatest influence on the symptoms and quality of life of patients with pulmonary fibrosis, and is an experiment that can most directly show the effect of improving lung function in an animal model of pulmonary fibrosis by measuring the oxygen concentration in the body.
On the 21st day, it was measured with a SpO2 measuring device (Berry, Veterinary Pulse Oximeter) via the abdominal side of the mouse, and the results are shown in Table 5 and FIG. 3.

[7] = system: animal model of pulmonary fibrosis; test: Measurement of total collagen content in lung (INSOLUBLE Collagen Assay); type: in vivo, mouse; details: BLM mice, PO, day 21, n 9; first component 10 mg/kg, NIN 60 mg/kg, PID 200 mg/kg
Experimental: as §2
In this experimental example, analysis was performed using INSOLUBLE Collagen Assay (Biocolor, S2000). After sacrifice on the 21st day, the cryopreserved lung tissue was pulverized by adding 100 uL of Fragmentation Reagent, and then, 100 uL of 37% HCl was added and incubated at 65° C. for 3 hours. The contents of the tube were shaken at 30 minute intervals to aid tissue disintegration. After centrifugation, the concentration was adjusted to 100 μL and collagen staining was proceeded to prepare a sample. Absorbance was measured at 560 nm.

[8] = system: animal model of pulmonary fibrosis; test: Inflammation cell count analysis in BALF; type: in vivo; details: BLM mice, PO, day 21; first component 10 mg/kg, NIN 60 mg/kg, PID 200 mg/kg
Experimental: as §2
At the sacrifice on the 21st day of administration, BALF (Bronchoalveolar lavage fluid) cells obtained through airway washing of mice were diluted with 1.05×PBS and attached to a slide, and then the slide was immersed and removed for 30 seconds in the order of 1, 2, 3 diff quick stain solution, and stained. It was counted based on 500 cells. Macrophages are the largest in size, mononuclear, and stained blue. Neutrophils and eosinophils form polynuclear cells, but eosinophils are stained red with eosin and distinguished from neutrophils. Lymphocytes have very less cytoplasm and are small in size as monocytes.

[9] = Measurement of change in body weight in BLM animal model; type: in vivo, mouse; parameters: unit not given here; details: BLM mice, first component 10 mg/kg, NIN 60 mg/kg, PID 200 mg/kg
Experimental: as §2
The body weight was measured once every 0, 7, 14, 17, and 21 days for 3 weeks, and from the 14th day when the drug effect began to be noticeable after the administration, it was measured every 3 days.

[10] = Drug interaction clinical trial, combined administration; type: in vivo, human; details: Part 2, healthy adults; first component 150 mg enteric tablet
Experimental: To evaluate the drug interaction during the combined administration of the first component and the second component, a clinical trial was conducted on a total of 48 healthy adults, divided into two groups of 24 each for Part 1 and Part 2. The clinical trial was designed by a fixed sequence, three-phase, and one 150 mg enteric tablet of the first component was orally administered.
Subjects enrolled in Part 1 were sequentially given a single dose of 600 mg of the second component (PID) in the phase 1, a single dose of 150 mg of the first component in the phase 2. After that, washout progressed on the 3rd day, and 150 mg of the first component was administered multiple times for 3 days, and in the final phase 3, a single dose of the first component and the second components (NIN) was administered in combination.

[11] = single oral 100 mg, enteric coated capsules
[12] = single oral 300 mg, enteric coated capsules
[13] = single oral 500 mg, enteric coated tablet
[14] = single oral 600 mg, enteric coated capsules
[15] = human, plasma, single oral 100 mg, enteric coated capsules
[16] = human, plasma, single oral 300 mg, enteric coated capsules
[17] = human, plasma, single oral 500 mg, enteric coated tablet
[18] = human, plasma, single oral 600 mg, enteric coated capsules
[19] = Table 2, second component (NIN) 50 ng/ml alone
[20] = Table 3, second component (NIN) 100 ng/ml alone

O[C@H]1CCCN[C@@H]1CCCn1cnc2c(Cl)c(Cl)ccc21 [Active component]
CL/F [1, 11]: 156.48 L/h | Cmax [1, 11]: 123.96 ng/mL | MRT [1, 11]: 9.26 h | T1/2 [1, 11]: 6.91 h | CL/F [1, 12]: 196.59 L/h | Cmax [1, 12]: 276.80 ng/mL | MRT [1, 12]: 9.75 h | T1/2 [1, 12]: 8.33 h | tmax (median) [1, 12]: 2.50 h | CL/F [1, 13]: 213.75 L/h | Cmax [1, 13]: 513.56 ng/mL | MRT [1, 13]: 9.57 h | T1/2 [1, 13]: 7.80 h | tmax (median) [1, 13]: 3.01 h | CL/F [1, 14]: 312.07 L/h | Cmax [1, 14]: 213.43 ng/mL | MRT [1, 14]: 9.79 h | T1/2 [1, 14]: 9.90 h | half-life ([1]; human, plasma, oral, single administration, across 100-600 mg doses, read-out: geometric mean half-life): 6.91 to 9.9 h | AUC(0-inf) [1, 15]: 639 ng·h/mL | AUC(0-t) [1, 15]: 594 ng·h/mL | Tmax [1, 15]: 3 h | AUC(0-inf) [1, 16]: 1530 ng·h/mL | AUC(0-t) [1, 16]: 1480 ng·h/mL | AUC(0-inf) [1, 17]: 2340 ng·h/mL | AUC(0-t) [1, 17]: 2280 ng·h/mL | AUC(0-inf) [1, 18]: 1920 ng·h/mL | AUC(0-t) [1, 18]: 1010 ng·h/mL | Tmax [1, 18]: 2 h | relationship of plasma concentrations to dose ([1]; single administration): dose proportional relationship | Accumulation ratio based on AUCτ ([2]; 25 mg tablet twice a day): 1.94 | CL/Fss ([2]; 25 mg tablet twice a day): 122.65 L/h | Cmax, ss ([2]; 25 mg tablet twice a day): 36.50 ng/mL | MRT ([2]; 25 mg tablet twice a day): 10.53 h | T1/2 ([2]; 25 mg tablet twice a day): 7.63 h | Vz/Fss ([2]; 25 mg tablet twice a day): 1433.79 L | tmax, ss (median) ([2]; 25 mg tablet twice a day): 2.00 h | AUCτ ([2]; 25 mg tablet twice a day): 183.32 ng·h/mL | Accumulation ratio based on AUCτ ([2]; 50 mg tablet twice a day): 2.33 | CL/Fss ([2]; 50 mg tablet twice a day): 116.53 L/h | Cmax, ss ([2]; 50 mg tablet twice a day): 102.61 ng/mL | MRT ([2]; 50 mg tablet twice a day): 8.44 h | T1/2 ([2]; 50 mg tablet twice a day): 4.40 h | Vz/Fss ([2]; 50 mg tablet twice a day): 738.97 L | AUCτ ([2]; 50 mg tablet twice a day): 429.09 ng·h/mL | Accumulation ratio based on AUCτ ([2]; 100 mg tablet twice a day): 1.88 | CL/Fss ([2]; 100 mg tablet twice a day): 161.97 L/h | Cmax, ss ([2]; 100 mg tablet twice a day): 151.27 ng/mL | MRT ([2]; 100 mg tablet twice a day): 10.17 h | T1/2 ([2]; 100 mg tablet twice a day): 9.26 h | Vz/Fss ([2]; 100 mg tablet twice a day): 2163.04 L | tmax, ss (median) ([2]; 100 mg tablet twice a day): 3.00 h | AUCτ ([2]; 100 mg tablet twice a day): 617.40 ng·h/mL | Accumulation ratio based on AUCτ ([2]; 200 mg tablet twice a day): 3.75 | CL/Fss ([2]; 200 mg tablet twice a day): 66.39 L/h | Cmax, ss ([2]; 200 mg tablet twice a day): 595.35 ng/mL | MRT ([2]; 200 mg tablet twice a day): 12.07 h | T1/2 ([2]; 200 mg tablet twice a day): 12.35 h | Vz/Fss ([2]; 200 mg tablet twice a day): 1182.53 L | AUCτ ([2]; 200 mg tablet twice a day): 3012.35 ng·h/mL | AUC(0-inf) ([2]; human, plasma, oral, 25 mg tablet twice a day): 301 ng·h/mL | AUC(0-inf) ([2]; human, plasma, oral, 50 mg tablet twice a day): 565 ng·h/mL | AUC(0-inf) ([2]; human, plasma, oral, 100 mg tablet twice a day): 888 ng·h/mL | AUC(0-inf) ([2]; human, plasma, oral, 200 mg tablet twice a day): 4750 ng·h/mL | AUC ([2]; human, plasma, oral, multiple administration, 14th day, across 25-200 mg, read-out: geometric mean dose interval in vivo exposure (AUCτ)): 183 to 3010 ng·h/mL | half-life ([2]; human, plasma, oral, multiple administration, 14th day, across 25-200 mg, read-out: geometric mean half-life): 4.4 to 12.3 h | relationship of plasma concentrations to dose ([2]; multiple administration, dose range of 25 mg to 200 mg): dose linear relationship | AUCtau ([3]; oral Dose 50 mg): 231.6352 ng·h/mL | AUCtau—24 hr ([3]; oral Dose 50 mg): 463.2704 ng·h/mL | CL/F ([3]; oral Dose 50 mg): 215856.7 mL/h | Cmax ([3]; oral Dose 50 mg): 38.271 ng/mL | T1/2 ([3]; oral Dose 50 mg): 9.753 h | Tmax ([3]; oral Dose 50 mg): 2.803 h | AUCtau ([3]; oral Dose 100 mg): 463.2704 ng·h/mL | AUCtau—24 hr ([3]; oral Dose 100 mg): 926.5407 ng·h/mL | CL/F ([3]; oral Dose 100 mg): 215856.7 mL/h | Cmax ([3]; oral Dose 100 mg): 76.5419 ng/mL | T1/2 ([3]; oral Dose 100 mg): 9.753 h | Tmax ([3]; oral Dose 100 mg): 2.803 h | AUCtau ([3]; oral Dose 150 mg): 694.9055 ng·h/mL | AUCtau—24 hr ([3]; oral Dose 150 mg): 1389.811 ng·h/mL | CL/F ([3]; oral Dose 150 mg): 215856.7 mL/h | Cmax ([3]; oral Dose 150 mg): 114.813 ng/mL | T1/2 ([3]; oral Dose 150 mg): 9.753 h | Tmax ([3]; oral Dose 150 mg): 2.803 h | AUCtau ([3]; oral Dose 200 mg): 926.5413 ng·h/mL | AUCtau—24 hr ([3]; oral Dose 200 mg): 1853 ng·h/mL | CL/F ([3]; oral Dose 200 mg): 215856.5 mL/h | Cmax ([3]; oral Dose 200 mg): 153.084 ng/mL | T1/2 ([3]; oral Dose 200 mg): 9.753 h | Tmax ([3]; oral Dose 200 mg): 2.803 h | serious abnormal signs or side effects [4]: no serious abnormal signs or side effects

COC(=O)c1ccc2c(c1)NC(=O)/C2=C(\Nc1ccc(N(C)C(=O)CN2CCN(C)CC2)cc1)c1ccccc1 [Second component (NIN), Nintedanib]
COL1A1 Relative value (based on control) [5, 19]: 4.60 | SMA-α Relative value (based on control) [5, 19]: 2.63 | COL1A1 Relative value (based on control) [5, 20]: 2.81 | SMA-α Relative value (based on control) [5, 20]: 2.99 | SpO2 Average value [6]: 79.8 | SpO2 Differance ([6]; vs vehicle): 3.8 | SpO2 Rate of increase ([6]; vs vehicle): 5% | total collagen content in lung (hydroxyproline value, ratio compared with normal group) [7]: 192 | Eosinophil count in BALF [8]: 0 | Lymphocyte count in BALF [8]: 5 | Macrophage count in BALF [8]: 53 | Neutrophil count in BALF [8]: 10 | total cell in BALF [8]: 69 10^4 | change in body weight ([9]; Day 0): 0.0 | change in body weight ([9]; Day 7): −10.1 | change in body weight ([9]; Day 14): −22.6 | change in body weight ([9]; Day 17): −20.0 | change in body weight ([9]; Day 21): −18.2 | drug interaction when administered in combination with the first component vs alone [10]: no clinically significant drug interaction
